Results published in US20240124465A1, “MOLECULES AND METHODS RELATED TO TREATMENT OF DISORDERS ASSOCIATED WITH JAK-2 SIGNALING DYSFUNCTION” (ST. JUDE CHILDREN'S RESEARCH HOSPITAL, priority 2020, published 2024).

How the values were obtained:
Assay type in all cases: cell-based
MHH-CALL-4 cells = assay: Cytotoxicity assay (resazurin, 72 hours); parameters: AUC: unit not given beside the values; conditions: for EC50: MHHCALL4, resazurin; for AUC: area under the dose-response curve
Procedure, shortened: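 Cells grown in RPMI1640 with 10% FBS, 2×10⁵ per well, were exposed to pin-transferred compounds in triplicate for 72 h at 37 °C, 5% CO2. Viability was read after 4 h resazurin incubation. Dose-response AUC was calculated per compound; selected data were fitted by non-linear regression.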

TYK2 = molecular target: T1, TYK2 (Homo sapiens, UniProt P29597); assay: Western blot assay, TYK2 protein degradation; conditions: MHH-CALL-4 cells, vehicle control = 100%
T1 construct: endogenous in cells; host or cells: MHH-CALL-4
Description: (§1) Western blot assay: MHH-CALL-4 Cells were washed twice with ice-cold PBS and lysed in RIPA lysis buffer (Sigma) freshly supplemented with Halt™ Protease Inhibitor Cocktail (ThermoFisher) for 15 minutes on ice. The cell pellet was removed by centrifugation at 13,000 g at 4° C. for 15 minutes. Protein concentration was measured by BCA assay (Thermo Fisher Scientific). Proteins were denatured in NuPAGE LDS 4× sample buffer supplemented with reducing agents (Invitrogen). Typically, 10-20 μg of total protein was loaded per lane on a 4%-12% NUPAGE Bis-Tris gradient gel (Invitrogen) and analyzed by standard immunoblotting and imaged using Li—COR Odyssey CLx (LI-COR Biotechnology, Lincoln, NE). To access the protein degradation, the signal of target protein was normalized by the signal of ACBT and the signal of vehicle control was set as 100%. Primary antibodies used were: JAK1 (Cell Signaling #3332S), JAK2 (#3230S), JAK3 (#8827S), TYK2 (#9312S), GSPT1 (#14980S), CRBN (#71810S), IKZF1 (Santa Cruz Biotechnology, SC-398265) and ACBT (Santa Cruz Biotechnology, SC-47778).

JAK1 = molecular target: T2, JAK1 (Homo sapiens, UniProt P23458); assay: Western blot assay, JAK1 protein degradation; conditions: MHH-CALL-4 cells, vehicle control = 100%
T2 construct: endogenous in cells; host or cells: MHH-CALL-4
Description: as §1

JAK2 = assay: Western blot assay, JAK2 protein degradation; conditions: MHH-CALL-4 cells, vehicle control = 100%
Procedure, shortened: (§2)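 MHH-CALL-4 lysates (RIPA + protease inhibitors, 15 min on ice); BCA-quantified; 10-20 μg/lane, 4%-12% Bis-Tris gel; immunoblot, infrared imaging. Readout: target/ACBT ratio, vehicle = 100%.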

GSPT1 = molecular target: T3, GSPT1 (Homo sapiens, UniProt P15170); assay: Western blot assay, GSPT1 neosubstrate degradation; conditions: MHHCALL4; 100 nM, 24 h; MHH-CALL-4 cells; vehicle control = 100%
T3 construct: endogenous in cells; host or cells: MHH-CALL-4
Procedure, shortened: as §2

JAK3 = molecular target: T4, JAK3 (Homo sapiens, UniProt P52333); assay: Western blot assay, JAK3 protein degradation; conditions: MHHCALL4; 100 nM, 24 h; MHH-CALL-4 cells; vehicle control = 100%; read-out: Target Protein Degradation (% remaining at 100 nM, 24 h) JAK3
T4 construct: endogenous in cells; host or cells: MHH-CALL-4
T4 sequence (P52333 1-1124): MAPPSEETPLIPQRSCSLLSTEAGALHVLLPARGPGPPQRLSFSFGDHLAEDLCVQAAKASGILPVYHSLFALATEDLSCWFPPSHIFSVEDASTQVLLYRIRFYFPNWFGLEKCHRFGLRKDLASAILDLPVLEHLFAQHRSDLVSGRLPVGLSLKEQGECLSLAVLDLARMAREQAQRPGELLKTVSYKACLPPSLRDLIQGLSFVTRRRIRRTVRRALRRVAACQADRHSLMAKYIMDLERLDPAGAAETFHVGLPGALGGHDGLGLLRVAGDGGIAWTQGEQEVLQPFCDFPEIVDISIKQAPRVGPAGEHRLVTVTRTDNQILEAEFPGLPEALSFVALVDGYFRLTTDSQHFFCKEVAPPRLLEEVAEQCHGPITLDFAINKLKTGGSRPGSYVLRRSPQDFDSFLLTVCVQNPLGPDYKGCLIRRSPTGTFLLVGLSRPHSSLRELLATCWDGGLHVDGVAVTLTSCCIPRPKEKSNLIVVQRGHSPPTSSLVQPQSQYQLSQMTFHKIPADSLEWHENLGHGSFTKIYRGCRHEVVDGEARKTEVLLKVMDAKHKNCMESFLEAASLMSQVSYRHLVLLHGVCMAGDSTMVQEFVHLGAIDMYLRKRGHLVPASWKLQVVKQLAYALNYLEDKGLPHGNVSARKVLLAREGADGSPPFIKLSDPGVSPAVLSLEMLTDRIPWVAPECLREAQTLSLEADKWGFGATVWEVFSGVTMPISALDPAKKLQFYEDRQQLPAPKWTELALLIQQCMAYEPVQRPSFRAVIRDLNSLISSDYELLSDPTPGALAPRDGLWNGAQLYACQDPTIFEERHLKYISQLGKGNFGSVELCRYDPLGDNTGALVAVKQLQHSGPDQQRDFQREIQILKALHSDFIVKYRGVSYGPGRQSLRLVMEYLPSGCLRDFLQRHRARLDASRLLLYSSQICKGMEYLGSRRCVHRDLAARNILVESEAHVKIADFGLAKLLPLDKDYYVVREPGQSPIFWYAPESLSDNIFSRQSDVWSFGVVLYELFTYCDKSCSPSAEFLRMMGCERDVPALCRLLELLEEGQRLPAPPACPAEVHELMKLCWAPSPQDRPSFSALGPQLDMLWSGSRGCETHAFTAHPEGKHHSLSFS
Description: as §1

T2 sequence (P23458 whole entry): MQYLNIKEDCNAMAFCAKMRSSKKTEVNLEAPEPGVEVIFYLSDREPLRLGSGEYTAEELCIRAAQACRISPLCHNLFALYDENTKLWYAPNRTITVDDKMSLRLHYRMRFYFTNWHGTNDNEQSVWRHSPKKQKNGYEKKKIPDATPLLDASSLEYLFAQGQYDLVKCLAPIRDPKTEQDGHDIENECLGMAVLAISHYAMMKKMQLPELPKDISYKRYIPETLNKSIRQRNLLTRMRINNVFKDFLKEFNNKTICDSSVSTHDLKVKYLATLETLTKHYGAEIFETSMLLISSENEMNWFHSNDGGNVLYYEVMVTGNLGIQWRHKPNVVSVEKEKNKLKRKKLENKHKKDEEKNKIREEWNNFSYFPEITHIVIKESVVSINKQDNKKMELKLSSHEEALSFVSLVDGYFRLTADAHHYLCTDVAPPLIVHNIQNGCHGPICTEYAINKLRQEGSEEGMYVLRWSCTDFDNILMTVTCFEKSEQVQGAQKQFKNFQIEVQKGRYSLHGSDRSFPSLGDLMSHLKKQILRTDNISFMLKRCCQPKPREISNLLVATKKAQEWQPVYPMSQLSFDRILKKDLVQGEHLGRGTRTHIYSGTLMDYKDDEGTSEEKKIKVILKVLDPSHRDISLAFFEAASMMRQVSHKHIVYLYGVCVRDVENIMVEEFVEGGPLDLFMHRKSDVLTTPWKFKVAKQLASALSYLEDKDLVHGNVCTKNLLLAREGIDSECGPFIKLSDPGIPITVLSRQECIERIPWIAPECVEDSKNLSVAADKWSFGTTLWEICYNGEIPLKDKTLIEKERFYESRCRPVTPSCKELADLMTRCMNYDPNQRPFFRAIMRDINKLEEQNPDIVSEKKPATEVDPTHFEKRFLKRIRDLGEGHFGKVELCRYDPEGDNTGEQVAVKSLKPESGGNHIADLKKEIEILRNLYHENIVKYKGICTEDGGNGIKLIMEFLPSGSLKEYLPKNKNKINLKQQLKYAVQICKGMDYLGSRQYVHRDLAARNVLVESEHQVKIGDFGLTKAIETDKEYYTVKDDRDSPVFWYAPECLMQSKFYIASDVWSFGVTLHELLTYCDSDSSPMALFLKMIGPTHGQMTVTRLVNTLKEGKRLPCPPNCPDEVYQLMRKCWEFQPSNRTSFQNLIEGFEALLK
T3 sequence (P15170 whole entry): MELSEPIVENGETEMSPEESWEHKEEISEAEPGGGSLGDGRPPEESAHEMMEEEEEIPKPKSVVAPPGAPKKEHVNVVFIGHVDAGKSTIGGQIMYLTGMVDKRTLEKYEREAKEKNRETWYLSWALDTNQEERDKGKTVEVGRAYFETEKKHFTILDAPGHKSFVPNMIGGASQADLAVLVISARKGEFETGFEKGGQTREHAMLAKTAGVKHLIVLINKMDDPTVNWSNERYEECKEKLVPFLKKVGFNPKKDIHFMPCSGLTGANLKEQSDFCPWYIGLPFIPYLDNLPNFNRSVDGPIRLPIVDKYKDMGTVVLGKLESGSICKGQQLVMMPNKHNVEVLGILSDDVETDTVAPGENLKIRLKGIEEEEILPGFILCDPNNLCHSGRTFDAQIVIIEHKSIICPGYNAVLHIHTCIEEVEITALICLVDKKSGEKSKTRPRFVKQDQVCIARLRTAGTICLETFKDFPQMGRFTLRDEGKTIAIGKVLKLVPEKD
T1 sequence (P29597 whole entry): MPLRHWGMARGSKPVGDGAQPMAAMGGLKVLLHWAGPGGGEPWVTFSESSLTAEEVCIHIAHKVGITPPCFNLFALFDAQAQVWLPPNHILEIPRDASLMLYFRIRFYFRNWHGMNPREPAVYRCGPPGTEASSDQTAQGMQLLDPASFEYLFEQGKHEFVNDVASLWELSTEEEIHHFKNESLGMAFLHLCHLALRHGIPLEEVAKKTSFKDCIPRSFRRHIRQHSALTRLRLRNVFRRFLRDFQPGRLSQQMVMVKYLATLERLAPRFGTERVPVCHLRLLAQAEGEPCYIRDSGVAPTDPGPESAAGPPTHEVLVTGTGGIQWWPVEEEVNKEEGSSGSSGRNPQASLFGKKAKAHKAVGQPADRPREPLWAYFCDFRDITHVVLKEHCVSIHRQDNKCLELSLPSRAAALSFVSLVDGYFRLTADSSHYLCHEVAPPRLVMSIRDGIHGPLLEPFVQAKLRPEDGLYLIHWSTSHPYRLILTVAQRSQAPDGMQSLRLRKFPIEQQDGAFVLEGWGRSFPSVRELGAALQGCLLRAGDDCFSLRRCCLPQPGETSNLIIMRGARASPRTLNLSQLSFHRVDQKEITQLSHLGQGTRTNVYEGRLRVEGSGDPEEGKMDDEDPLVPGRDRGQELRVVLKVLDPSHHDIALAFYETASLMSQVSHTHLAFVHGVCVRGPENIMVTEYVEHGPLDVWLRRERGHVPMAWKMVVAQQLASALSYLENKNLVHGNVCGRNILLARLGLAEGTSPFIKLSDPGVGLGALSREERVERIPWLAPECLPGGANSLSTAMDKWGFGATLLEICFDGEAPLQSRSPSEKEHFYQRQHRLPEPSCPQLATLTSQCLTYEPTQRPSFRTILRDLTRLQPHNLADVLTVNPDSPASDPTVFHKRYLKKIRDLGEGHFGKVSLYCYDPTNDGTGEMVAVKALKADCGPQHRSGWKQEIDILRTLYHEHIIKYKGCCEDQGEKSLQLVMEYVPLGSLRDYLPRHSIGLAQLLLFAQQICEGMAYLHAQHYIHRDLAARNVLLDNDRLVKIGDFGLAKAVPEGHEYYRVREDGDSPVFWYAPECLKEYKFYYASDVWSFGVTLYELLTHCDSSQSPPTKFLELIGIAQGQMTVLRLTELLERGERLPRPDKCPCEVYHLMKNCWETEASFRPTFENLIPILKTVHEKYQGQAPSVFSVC

Row | Structure (SMILES) | EC50 (MHH-CALL-4 cells) [nM] | Target Protein Degradation (% remaining at 100 nM, 24 h) TYK2 (TYK2) [% remaining] | Target Protein Degradation (% remaining at 100 nM, 24 h) JAK1 (JAK1) [% remaining] | Target Protein Degradation (% remaining at 100 nM, 24 h) JAK2 (JAK2) [% remaining] | AUC (MHH-CALL-4 cells) | remaining activity at 0.1 µM (GSPT1) [%] | remaining activity at 0.1 µM (JAK3) [%]
1 | CCS(=O)(=O)N1CC(CC#N)(n2cc(-c3nc(Nc4ccc(C(=O)NC5CCN(c6ccc(C7CCC(=O)NC7=O)cc6)CC5)cc4)nc4[nH]ccc34)cn2)C1 (stereo not drawn) [Compound 46, 4-((4-(1-(3-(cyanomethyl)-1-(ethylsulfonyl)azetidin-3-yl)-1H-pyrazol-4-yl)-7H-pyrrolo[2,3-d]pyrimidin-2-yl)amino)-N-(1-(4-(2,6-dioxopiperidin-3-yl)phenyl)piperidin-4-yl)benzamide] | 9.25 | 119 | 98 | 20 |  |  | 
2 | CCS(=O)(=O)N1CC(CC#N)(n2cc(-c3nc(Nc4ccc(C(=O)N5CCC6(CC5)CCN(c5ccc(C7CCC(=O)NC7=O)cc5)CC6)cc4)nc4[nH]ccc34)cn2)C1 (stereo not drawn) [Compound 50, 2-(3-(4-(2-((4-(9-(4-(2,6-dioxopiperidin-3-yl)phenyl)-3,9-diazaspiro[5.5]undecane-3-carbonyl)phenyl)amino)-7H-pyrrolo[2,3-d]pyrimidin-4-yl)-1H-pyrazol-1-yl)-1-(ethylsulfonyl)azetidin-3-yl)acetonitrile] | 9 |  | 85 | 11 | 202 | 137 | 28
3 | CCS(=O)(=O)N1CC(CC#N)(n2cc(-c3nc(Nc4ccc(C(=O)NCCCCCCNc5ccc(C6CCC(=O)NC6=O)cc5)cc4)nc4[nH]ccc34)cn2)C1 (stereo not drawn) [Compound 1] | 0.8 |  | 128 | 34 | 231 | 84 | 37
4 | N#CC[C@@H](C1CCCC1)n1cc(-c2nc(Nc3ccc(C(=O)NCCCN4CCN(c5ccc6c(c5)C(=O)N(C5CCC(=O)NC5=O)C6=O)CC4)cc3)nc3[nH]ccc23)cn1 (stereo partly drawn) [Compound 23] | 30.9 |  | 145 | 67 | 79 | 155 | 109
5 | CCS(=O)(=O)N1CC(CC#N)(n2cc(-c3nc(Nc4ccc(C(=O)NCCCN5CCC(c6ccc7c(c6)CN(C6CCC(=O)NC6=O)C7=O)CC5)cc4)nc4[nH]ccc34)cn2)C1 (stereo not drawn) [Compound 28] | 16.8 |  | 112 | 83 | 223.00 | 127 | 97
6 | CCS(=O)(=O)N1CC(CC#N)(n2cc(-c3nc(Nc4ccc(C(=O)NCCOCCOc5ccc(C6CCC(=O)NC6=O)cc5)cc4)nc4[nH]ccc34)cn2)C1 (stereo not drawn) [Compound 11] | > 10000 |  | 110 | 90 |  | 130 | 70
7 | CCS(=O)(=O)N1CC(CC#N)(n2cc(-c3nc(Nc4ccc(C(=O)NCCN5CCN(c6cccc(C7CCC(=O)NC7=O)c6)CC5)cc4)nc4[nH]ccc34)cn2)C1 (stereo not drawn) [Compound 40, 4-((4-(1-(3-(cyanomethyl)-1-(ethylsulfonyl)azetidin-3-yl)-1H-pyrazol-4-yl)-7H-pyrrolo[2,3-d]pyrimidin-2-yl)amino)-N-(2-(4-(3-(2,6-dioxopiperidin-3-yl)phenyl)piperazin-1-yl)ethyl)benzamide] | 1.9 |  | 114 | 36 | 139 | 88 | 56
8 | CCS(=O)(=O)N1CC(CC#N)(n2cc(-c3nc(Nc4ccc(C(=O)NCC5CCN(c6ccc7c(c6)C(=O)N(C6CCC(=O)NC6=O)C7=O)CC5)cc4)nc4[nH]ccc34)cn2)C1 (stereo not drawn) [Compound 31] | 2.1 |  | 58 | 18 | 260 | 61 | 54
9 | CCS(=O)(=O)N1CC(CC#N)(n2cc(-c3nc(Nc4ccc(C(=O)NCCCN5CCN(c6cccc(C7CCC(=O)NC7=O)c6)CC5)cc4)nc4[nH]ccc34)cn2)C1 (stereo not drawn) [Compound 42, 4-((4-(1-(3-(cyanomethyl)-1-(ethylsulfonyl)azetidin-3-yl)-1H-pyrazol-4-yl)-7H-pyrrolo[2,3-d]pyrimidin-2-yl)amino)-N-(3-(4-(3-(2,6-dioxopiperidin-3-yl)phenyl)piperazin-1-yl)propyl)benzamide] | 836 |  | 128 | 48 | 139 | 76 | 71
10 | CCS(=O)(=O)N1CC(CC#N)(n2cc(-c3nc(Nc4ccc(C(=O)NCCC5CCN(c6ccc7c(c6)C(=O)N(C6CCC(=O)NC6=O)C7=O)CC5)cc4)nc4[nH]ccc34)cn2)C1 (stereo not drawn) [Compound 32] | 1.3 |  | 69 | 21 | 251 | 46 | 56
11 | CCS(=O)(=O)C1CC(CC#N)(n2cc(-c3nc(Nc4ccc(C(=O)NC5CCN(c6cccc7c6C(=O)N(C6CCC(=O)NC6=O)C7=O)CC5)cc4)nc4[nH]ccc34)cn2)C1 (stereo not drawn) [Compound 30] | 0.3 |  | 105 | 88 | 215.00 | 140 | 77
